In this experiment the test system is D54 LucT luciferase reporter counterscreen, luminescence, 24 h. As to the kind of experiment: luciferase activators in glycosylation-insensitive reporter cells, dose response, counter-screen for N-linked glycosylation inhibitor project, D54 LucT cells, luminescence, cherry pick (AID 624404). In general terms: The purpose of a counterscreen is to sort out artefacts and off-target activity.

Experimental findings from PubChem BioAssay AID624404 (Broad Institute, 2012) are described below.

SMILES strings stand for the structures. Inconclusive results are not listed.

In the case of `COc1ccc(-c2cc3ccccc3oc2=O)cc1NC(=O)c1ccc([N+](=O)[O-])o1`, the AC35 was 837 nM.
In the case of `COC(=O)c1c(NC(=O)c2cccnc2Cl)sc(C(=O)N(C)C)c1C`, the AC35 was 1380 nM.
In the case of `COc1cc2c(cc1OC)C(c1ccccc1)N(C(=O)c1ccco1)CC2` (configuration not stated), the AC35 was 375 nM.
`CCC(C)C(=O)OC1CCC=C2C=CC(C)C(CCC3CC(O)CC(=O)O3)C21` (configuration not stated): the AC35 is 499 nM.
`COc1ccc([C@@H]2[C@@H]3C(=O)N(C(C)(C)C)C(=O)[C@@H]3[C@]3(Cc4ccccc4)C(=O)N(c4cccc(Br)c4)C(=O)N23)cc1`: the AC35 was 762 nM.
The value for `O=C1C=C(c2cccs2)C[C@H](c2ccccc2)[C@H]1n1nnc([N+](=O)[O-])n1` was 208 nM; that for `Cc1ccc2c(c1)NC(=O)[C@@]1(C)[C@@H](c3ccccc3)[C@H]3COc4ccccc4[C@@H]3N1C2=O` was 371 nM; that for `COc1cc(C(=O)Nc2cc3c(cc2N2CCCCC2)n(C)c(=O)n3C)cc(OC)c1OC` was 96.4 nM.
As for `COc1cc2c(cc1OC)C(c1cccs1)N(C(=O)c1cccnc1)CC2` (configuration not stated), the AC35 was 438 nM.
As for `O=C(N/N=C/c1ccco1)c1ccccc1OCc1ccccc1Cl`, the AC35 is 1110 nM.
The value for `Cc1ccc(-c2nn3c(C)nnc3c3ccccc23)cc1S(=O)(=O)N(C)CCO` was 599 nM.
The value for `COc1cc(/C=C2\SC(=S)N(CCC(=O)N3CCCCC3)C2=O)cc(OC)c1OC` was 3440 nM; that for `CC(=O)c1ccc(N2CCN(C(=O)c3cccc(Oc4ccccc4)c3)CC2)cc1` was 1270 nM; that for `CC(Nc1nc(-c2ccccc2O)nc2ccccc12)c1ccccc1` (configuration not stated) was 39.5 nM.
Consider `Cn1c(=O)[nH]c(=O)c2c1nc(NN)n2CCOc1ccccc1`, for which the AC35 was 3090 nM.
The value for `CC(C)Oc1ccc(C(=O)Nc2ccc3c(c2)n(C)c(=O)n3C)cc1` was 5520 nM.
The value for `COc1ccc(CNC(=O)C/C(C)=N/NC(=O)COc2ccc(C)cc2Br)cc1` was 3090 nM; that for `Cc1ccc2c(c1)C(=O)N1[C@H]3c4cc(Cl)ccc4OC[C@@H]3[C@H](c3ccccc3)[C@]1(C)C(=O)N2` was 650 nM.
Turning to `COc1cc(C(=O)NCC(=O)NCCN2C(=O)S/C(=C\c3ccccc3Cl)C2=O)cc(OC)c1OC`, the AC35 was 1150 nM.
In the case of `CC1(C(=O)NCc2ccccc2)Cc2c(-c3cccc(C(N)=O)c3)ccnc2O1` (configuration not stated), the AC35 was 651 nM.
The value for `Cc1ccc(-n2nc(C)c(/C=N/NC(=O)c3cccs3)c2Cl)cc1` was 55.6 nM.
The value for `O=C(Nc1ccccc1-c1ccccc1)C1CCCC1` was 1220 nM; that for `CN(CCCNC(=O)CCCOc1cc(=O)n(C)c2ccccc12)Cc1ccccc1` was 5230 nM; that for `CCn1ncc(C2=NOC(C(=O)NCc3ccc(Cl)cc3)C2)c1C` (configuration not stated) was 14700 nM.
The value for `COc1cc2c(cc1OC)C(=O)N1[C@H]3c4cc(C)ccc4OC[C@@H]3[C@H](c3ccccc3)[C@]1(C)C(=O)N2` was 131 nM; that for `O=C(Nc1c(Cl)ccc2nsnc12)c1ccc([N+](=O)[O-])o1` was 778 nM; that for `O=C(NC1CCCCC1)c1cccc2c1C(=O)c1ccc(-c3ccc(OC(F)(F)F)cc3)cc1S2(=O)=O` was 31.2 nM.
In the case of `COc1cccc(C(N)c2nc(-c3csc4ccccc34)cs2)c1` (configuration not stated), the AC35 was 4880 nM.
In the case of `CCn1c(=S)[nH]c2cc(S(=O)(=O)N3CCCCC3)ccc21`, the AC35 is 1250 nM.
The value for `Cc1noc(C)c1-c1ccc(C(=O)NCc2cccnc2)c2occc12` was 297 nM.
In the case of `COc1ccccc1-c1csc(C(NC(C)=O)c2ccccc2)n1` (configuration not stated), the AC35 was 643 nM.
As for `CC(=O)Nc1ccc(NC(=O)c2ccc(-c3c(C)noc3C)c3ccoc23)cc1`, the AC35 was 5690 nM.
The value for `Cc1ccc(N2C(=O)Nc3ccccc3C2(O)C(=O)N2CCN(c3ccccn3)CC2)cc1C` (configuration not stated) was 375 nM; that for `Cn1c(=O)cc(OCCCC(=O)NC2CCCC2)c2ccccc21` was 3240 nM; that for `CCOC(=O)N1CCN(C(=O)c2cc(-c3ccncc3)nc3ccccc23)CC1` was 5630 nM.
As for `CCOc1ccc(N2CCc3c(C)nc(SC)nc32)cc1`, the AC35 is 3060 nM.
The value for `Cc1ccc(-c2cc(C(=O)N3CC(C)OC(C)C3)c3ccccc3n2)o1` (configuration not stated) was 2910 nM; that for `COc1cccc(C(NC(C)=O)c2nc(-c3ccccc3C)cs2)c1` (configuration not stated) was 678 nM; that for `COc1ccccc1NC(=O)c1ccc(-c2ccc(Br)cc2)o1` was 466 nM.
The value for `COc1cc(-c2nc(-c3ccccc3)c(-c3cccs3)[nH]2)cc(OC)c1OC` was 7050 nM.
The value for `Cc1ccc(-c2cc(C(=O)Nc3ccncc3)c3ccccc3n2)cc1` was 4300 nM; that for `Cc1cc(C(=O)N/N=C/c2c3ccccc3cc3ccccc23)n[nH]1` was 643 nM; that for `Cc1cc(C)cc(-n2c3ccc(NC(=O)Cc4cccc5ccccc45)cc3c(=O)n2C)c1` was 5010 nM.
In the case of `CC(CCc1ccco1)NC(=O)CCc1nnc2ccc(NCc3ccc(Cl)cc3)nn12` (configuration not stated), the AC35 is 1580 nM.
The value for `COc1cc(Nc2c3ccccc3nc3ccccc23)cc(OC)c1OC` was 4160 nM.
The value for `COc1ccc(Nc2nc3cc(-c4sccc4C)sc3c(=O)n2C)cc1OC` was 104 nM.
The value for `COc1cccc(/C=N/NC(=O)c2ccc(N3CCCC3=O)cc2)c1` was 733 nM; that for `Cc1ccc2nc(-c3ccc(SCC(=O)Nc4nnc(C)s4)nc3)[nH]c2c1` was 22.4 nM.
As for `CCN(CC)S(=O)(=O)c1cccc(C(=O)OCC(=O)Nc2ccc3c(c2)c2ccccc2n3CC)c1`, the AC35 was 1390 nM.
The value for `Cc1ccc(C(=O)Nc2ccc(C(=O)/C=C/c3cccs3)cc2)cc1` was 709 nM.
With `CCCCNC(=O)c1cc(-c2ccc(F)cc2)on1`, the AC35 is 806 nM.
In the case of `COc1ccc(C(=O)/C=C/c2ccccc2)c(O)c1`, the AC35 is 404 nM.
The value for `COc1ccc(CNC(=O)c2cccc3c(-c4cnn(C)c4)coc23)cc1OC` was 1300 nM; that for `COc1ccc(CC(=O)N(Cc2ccccc2)c2ccc(C)cc2)cc1S(=O)(=O)N1CCOCC1` was 2500 nM; that for `CC1c2cc3c(cc2CCN1C(=O)c1ccc(Br)cc1)OCCCO3` (configuration not stated) was 172 nM.
The value for `O=C(COC(=O)c1cccc(Br)c1)Nc1cccc2c1C(=O)c1ccccc1C2=O` was 1150 nM; that for `COc1ccc(-n2c(NNC(C)=O)nc3sc4c(c3c2=O)CCCC4)cc1` was 1860 nM.
The value for `CCc1ccc(N2C(=O)Nc3ccccc3C2(O)C(=O)N2CCN(c3ccccn3)CC2)cc1` (configuration not stated) was 493 nM; that for `Cn1c(=O)n(C)c2cc(NS(=O)(=O)c3ccc4c(c3)CCCC4)ccc21` was 416 nM.
As for `COc1ccccc1NS(=O)(=O)c1ccc(C(=O)Nc2ncccc2O)cc1`, the AC35 is 8860 nM.
On to `O=C(COC(=O)Cn1cnc2ccccc21)Nc1cccc2c1C(=O)c1ccccc1C2=O`, for which the AC35 is 459 nM.
The value for `CC(C)(C)c1ccc(OCc2ccc(C(=O)N3CCOCC3)o2)cc1` was 1460 nM; that for `COCCNC(=S)N1CCc2cc(OC)c(OC)cc2C1c1cccs1` (configuration not stated) was 352 nM; that for `O=C(NCCCn1ccnc1)c1cc(-c2cccs2)on1` was 2020 nM.
The value for `COc1ccc2nc(C)cc(Nc3ccc(N4CCN(C)CC4)cc3)c2c1` was 4750 nM; that for `CC(C)(C)S(=O)N1Cc2cc(C(=O)NCC(F)(F)F)nc(-c3cccc(-c4cccc(F)c4)c3)c2[C@@H]1CCO` (some centres not stated) was 1780 nM.
As to `COc1ccc(NC(=O)C2Cc3c(-c4cccc(C(C)=O)c4)ccnc3O2)cc1` (configuration not stated), the AC35 is 90.9 nM.
The value for `COc1ccc2c(c1)OC[C@H]1[C@H]2N2C(=O)c3ccc(C)cc3NC(=O)[C@@]2(C)[C@H]1c1ccccc1` was 658 nM.
Consider `OCC1OC(n2cnc3c(SCc4ccccc4)ncnc32)C(O)C1O` (configuration not stated), for which the AC35 is 733 nM.
The value for `CCC(C)[C@H](NC(=O)N1CC(=O)Nc2ccccc21)C(=O)Nc1ccccc1C` (some centres not stated) was 2750 nM; that for `O=C1NC[C@H](Cc2ccccc2)N(C[C@H]2CCCN2C[C@H](Cc2ccccc2)N2C[C@H](Cc3ccc(O)cc3)N(CCc3ccccc3)C(=O)C2=O)C1=O` was 3770 nM; that for `CC1CN(C(=O)c2ccc(COc3ccc4ccccc4c3)o2)CC(C)O1` (configuration not stated) was 306 nM.
